The text below walks through data of ChEMBL document CHEMBL1157690, “Reliability of bond dissociation enthalpy calculated by the PM6 method and experimental TEAC values in antiradical QSAR of flavonoids” (Bioorg Med Chem, 2010).

The structures appear in SMILES notation.

Data set [1] is described as follows: ABTS radical scavenging activity assessed as trolox equivalent antioxidant capacity. It is filed as physicochemical.
Data set [2] in a line: DPPH radical scavenging activity assessed as trolox equivalent antioxidant capacity. Type of data set: functional.
Data set [3] in a line: Antioxidant activity assessed as ABTS radical scavenging activity. It is filed as functional.

Turning to `O=c1c(O[C@@H]2O[C@H](CO)[C@@H](O)[C@H](O)[C@H]2O)c(-c2ccc(O)c(O)c2)oc2cc(O)cc(O)c12` [ISOQUERCETIN], the Activity came to 2.39 MU in data set [1] and 2.16 MU in data set [2].

Turning to `Oc1cc(O)c2c(c1)O[C@H](c1cc(O)c(O)c(O)c1)[C@H](O)C2` [EPIGALLOCATECHIN], the Activity in data set [1] came to 3.71 MU; in data set [2], 3.56 MU.

As for `O=C(O[C@H]1Cc2c(O)cc(O)cc2O[C@@H]1c1ccc(O)c(O)c1)c1cc(O)c(O)c(O)c1` [CATECHIN GALLATE], the Activity in data set [1] stood at 5.25 MU; in data set [2] it was 5.56 MU.

For the molecule `Oc1cc(O)c2c(c1)O[C@H](c1ccc(O)c(O)c1)[C@H](O)C2` [(-)-EPICATECHIN], the Activity in data set [1] was 3.08 MU; in data set [2], 3.18 MU.

Regarding `O=c1c(O)c(-c2ccc(O)c(O)c2)oc2cc(O)cc(O)c12` [QUERCETIN], the Activity in data set [1] came out at 4.42 MU; in data set [2], 4.6 MU.

For `O=C1O[C@H]([C@@H](O)CO)C(O)=C1O`, the Activity in data set [3] was 100 mg/L.

In the case of `O=c1c(O)c(-c2ccccc2)oc2ccccc12` [FLAVONOL], the Activity was 0.707 MU in data set [1] and 0.484 MU in data set [2].

As for `O=c1cc(-c2ccccc2)oc2cc(O)c(O)c(O)c12` [BAICALEIN], the Activity in data set [1] stood at 2.56 MU; in data set [2], 2.74 MU.

For `C[C@@H]1O[C@@H](Oc2c(-c3ccc(O)c(O)c3)oc3cc(O)cc(O)c3c2=O)[C@H](O)[C@H](O)[C@H]1O` [QUERCITRIN], the figures for the Activity in data set [1] and in data set [2] were 2.18 MU and 2.57 MU, respectively.

Take `O=C(O)[C@H]1O[C@@H](Oc2cc3oc(-c4ccccc4)cc(=O)c3c(O)c2O)[C@H](O)[C@@H](O)[C@@H]1O` [BAICALIN]: the results for the Activity in data set [1] and in data set [2] were 1.55 MU and 1.79 MU, respectively.

`O=c1c(-c2ccc(O)cc2)coc2cc(O)ccc12` [DAIDZEIN]: the Activity came out at 0.101 MU in data set [1] and 0.033 MU in data set [2].

Regarding `Oc1cc(O)c2c(c1)O[C@H](c1ccc(O)c(O)c1)[C@H](O)[C@H]2c1c(O)cc(O)c2c1O[C@H](c1ccc(O)c(O)c1)[C@H](O)[C@H]2c1c(O)cc(O)c2c1O[C@H](c1ccc(O)c(O)c1)[C@H](O)C2` [PROCYANIDIN C1], the Activity came out at 8.29 MU in data set [1] and 8.79 MU in data set [2].

Regarding `COc1cc2c(=O)c(-c3ccc(O)cc3)coc2cc1O` [GLYCITEIN], the Activity in data set [1] turned out to be 0.097 MU; in data set [2], 0.02 MU.

As for `O=c1cc(-c2ccc(O)cc2)oc2cc(O[C@@H]3O[C@H](CO)[C@@H](O)[C@H](O)[C@H]3O)cc(O)c12` [APIGETRIN], the figures for the Activity in data set [1] and in data set [2] were 0.083 MU and 0.05 MU, respectively.

With `O=c1cc(-c2ccc(O)c(O)c2)oc2cc(O[C@@H]3O[C@H](CO)[C@@H](O)[C@H](O)[C@H]3O)cc(O)c12` [GALUTEOLIN], the Activity came out at 1.47 MU in data set [1] and 1.39 MU in data set [2].

`C[C@@H]1O[C@@H](OC[C@H]2O[C@@H](Oc3c(-c4ccc(O)c(O)c4)oc4cc(O)cc(O)c4c3=O)[C@H](O)[C@@H](O)[C@@H]2O)[C@H](O)[C@H](O)[C@H]1O` [RUTIN]: the Activity in data set [1] was determined as 2.02 MU; in data set [2], 2.33 MU.

For `O=c1cc(-c2ccc(O)c(O)c2)oc2cc(O)cc(O)c12` [LUTEOLIN], the figures for the Activity in data set [1] and in data set [2] were 2.18 MU and 2.24 MU, respectively.

`O=c1c(O)c(-c2ccc(O)cc2)oc2cc(O)cc(O)c12` [KAEMPFEROL]: the figures for the Activity in data set [1] and in data set [2] were 1.59 MU and 1.32 MU, respectively.

For `O=C(CCc1ccc(O)cc1)c1c(O)cc(O)cc1O` [PHLORETIN], the Activity in data set [1] worked out at 1.79 MU; in data set [2], 1.24 MU.

For `C[C@@H]1O[C@@H](Oc2cc(O)c3c(=O)c(O[C@@H]4O[C@H](CO)[C@@H](O)[C@H](O)[C@H]4O)c(-c4ccc(O)c(O)c4)oc3c2)[C@@H](O)[C@H](O)[C@@H]1O`, the Activity amounted to 1.56 MU in data set [1] and 1.63 MU in data set [2].

As to `COc1ccc([C@@H]2CC(=O)c3c(O)cc(O[C@@H]4O[C@H](CO[C@@H]5O[C@@H](C)[C@H](O)[C@@H](O)[C@H]5O)[C@@H](O)[C@H](O)[C@H]4O)cc3O2)cc1O` [HESPERIDIN], the figures for the Activity in data set [1] and in data set [2] were 0.104 MU and 0.075 MU, respectively.

Take `O=C(/C=C/c1ccc(O)c(O)c1)c1ccc(O)cc1O` [BUTEIN]: the values for the Activity in data set [1] and in data set [2] were 2.42 MU and 2.27 MU, respectively.

As to `O=C(O[C@@H]1Cc2c(O)cc(O)cc2O[C@@H]1c1ccc(O)c(O)c1)c1cc(O)c(O)c(O)c1` [EPICATECHIN GALLATE], the results for the Activity in data set [1] and in data set [2] were 5.29 MU and 5.26 MU, respectively.

With `O=c1c(O)c(-c2ccccc2)oc2cc(O)cc(O)c12` [GALANGIN], the Activity in data set [1] is 1.12 MU; in data set [2], 0.705 MU.

Consider `O=c1cc(-c2ccc(O)cc2)oc2c([C@@H]3O[C@H](CO)[C@@H](O)[C@H](O)[C@H]3O)c(O)cc(O)c12` [VITEXIN], for which the figures for the Activity in data set [1] and in data set [2] were 0.216 MU and 0.205 MU, respectively.

As to `O=C(O[C@@H]1Cc2c(O)cc(O)cc2O[C@@H]1c1cc(O)c(O)c(O)c1)c1cc(O)c(O)c(O)c1` [EPIGALOCATECHIN GALLATE], the Activity in data set [1] amounted to 5.95 MU; in data set [2], 6.08 MU.

`O=c1c(-c2ccc(O)cc2)coc2cc(O[C@@H]3O[C@H](CO)[C@@H](O)[C@H](O)[C@H]3O)cc(O)c12` [GENISTIN]: the results for the Activity in data set [1] and in data set [2] were 0.077 MU and 0.026 MU, respectively.

Take `C[C@@H]1O[C@@H](O[C@H]2[C@H](Oc3cc(O)c4c(c3)O[C@H](c3ccc(O)cc3)CC4=O)O[C@H](CO)[C@@H](O)[C@@H]2O)[C@H](O)[C@H](O)[C@H]1O` [NARINGIN]: the Activity in data set [1] turned out to be 0.098 MU; in data set [2] it was 0.077 MU.

Turning to `O=c1c(O)c(-c2cc(O)c(O)c(O)c2)oc2cc(O)cc(O)c12` [MYRICETIN], the results for the Activity in data set [1] and in data set [2] were 1.31 MU and 1.38 MU, respectively.

With `O=c1cc(-c2ccccc2)oc2cc(O)cc(O)c12` [CHRYSIN], the Activity in data set [1] was 0.081 MU; in data set [2] it was 0.053 MU.

Regarding `O=c1c(O)c(-c2ccc(O)cc2O)oc2cc(O)cc(O)c12` [MORIN], the figures for the Activity in data set [1] and in data set [2] were 2.68 MU and 2.75 MU, respectively.

On to `O=C1C[C@@H](c2ccc(O)cc2)Oc2cc(O)cc(O)c21` [NARINGENIN], for which the Activity was 0.217 MU in data set [1] and 0.136 MU in data set [2].

For the molecule `Oc1cc(O)c2c(c1)O[C@H](c1ccc(O)c(O)c1)[C@@H](O)C2` [CATECHIN], the Activity in data set [1] was 3.04 MU.

In the case of `O=c1cc(-c2ccc(O)cc2)oc2cc(O)cc(O)c12` [APIGENIN], the results for the Activity in data set [1] and in data set [2] were 0.086 MU and 0.041 MU, respectively.

As to `O=c1c(-c2ccc(O)cc2)coc2cc(O[C@@H]3O[C@H](CO)[C@@H](O)[C@H](O)[C@H]3O)ccc12` [DAIDZIN], the Activity in data set [1] is 0.072 MU; in data set [2] it was 0.035 MU.

Turning to `Oc1cc(O)c2c(c1)O[C@H](c1ccc(O)c(O)c1)[C@H](O)[C@H]2c1c(O)cc(O)c2c1O[C@H](c1ccc(O)c(O)c1)[C@@H](O)C2` [PROCYANIDIN B1], the values for the Activity in data set [1] and in data set [2] were 6.14 MU and 5.94 MU, respectively.

In the case of `O=c1c(-c2ccc(O)cc2)coc2cc(O)cc(O)c12` [GENISTEIN], the Activity in data set [1] worked out at 0.123 MU; in data set [2], 0.095 MU.

As to `COc1ccc([C@@H]2CC(=O)c3c(O)cc(O)cc3O2)cc1O` [HESPERETIN], the Activity in data set [1] came to 0.403 MU; in data set [2], 0.268 MU.

Turning to `Oc1cc(O)c2c(c1)OC(c1ccc(O)c(O)c1)C(O)C2` (stereo not given), the Activity in data set [2] came out at 2.95 MU.
